From patent publication US20250115598A1 (Anaxis Pharma Pty Ltd, priority 2021, published 2025)
pKd: −log10 of the molar value.

Tests used:
[1] = target: human RIPK3 (Homo sapiens (Human), UniProt Q9Y572); assay: KINOMEscan binding assay, human RIPK3; settings: Table 21
Method: (§1) Binding affinity of the test compounds for human MLKL (full length), mouse MLKL (full length), human RIPK1 and human RIPK3 was determined using the KINOMEscan™ technology developed by DiscoverX (USA; http://www.discoverx.com). The assay was conducted according to manufacturer instructions.
(§2) Kinase assays. For most assays, kinase-tagged T7 phage strains were grown in parallel in 24-well blocks in an E. coli host derived from the BL21 strain. E. coli were grown to log-phase and infected with T7 phage from a frozen stock (multiplicity of infection=0.4) and incubated with shaking at 32° C. until lysis (90-150 minutes). The lysates were centrifuged (6,000×g) and filtered (0.2 μm) to remove cell debris. The remaining kinases were produced in HEK-293 cells and subsequently tagged with DNA for qPCR detection. […] The liganded beads were blocked with excess biotin and washed with blocking buffer (SeaBlock (Pierce), 1% BSA, 0.05% Tween 20, 1 mM DTT) to remove unbound ligand and to reduce non-specific phage binding. […] All reactions were performed in polypropylene 384-well plates in a final volume of 20 μL. […] The kinase concentration in the eluates was measured by qPCR.
(§3) An 11-point 3-fold serial dilution of each test compound was prepared in 100% DMSO at 100× final test concentration and subsequently diluted to 1× in the assay (final DMSO concentration=1%). Most Kos were determined using a compound top concentration=30,000 nM.
(§4) KD for each test compound was calculated with a standard dose-response curve using the Hill equation (equation (1)): […]
(§5) The Hill Slope was set to −1.
(§6) Curves were fitted using a non-linear least square fit with the Levenberg-Marquardt algorithm.

[2] = target: human RIPK1 (Homo sapiens (Human), UniProt Q13546); assay: KINOMEscan binding assay, human RIPK1; settings: Table 21
Sequence of human RIPK1 (Q13546 whole entry): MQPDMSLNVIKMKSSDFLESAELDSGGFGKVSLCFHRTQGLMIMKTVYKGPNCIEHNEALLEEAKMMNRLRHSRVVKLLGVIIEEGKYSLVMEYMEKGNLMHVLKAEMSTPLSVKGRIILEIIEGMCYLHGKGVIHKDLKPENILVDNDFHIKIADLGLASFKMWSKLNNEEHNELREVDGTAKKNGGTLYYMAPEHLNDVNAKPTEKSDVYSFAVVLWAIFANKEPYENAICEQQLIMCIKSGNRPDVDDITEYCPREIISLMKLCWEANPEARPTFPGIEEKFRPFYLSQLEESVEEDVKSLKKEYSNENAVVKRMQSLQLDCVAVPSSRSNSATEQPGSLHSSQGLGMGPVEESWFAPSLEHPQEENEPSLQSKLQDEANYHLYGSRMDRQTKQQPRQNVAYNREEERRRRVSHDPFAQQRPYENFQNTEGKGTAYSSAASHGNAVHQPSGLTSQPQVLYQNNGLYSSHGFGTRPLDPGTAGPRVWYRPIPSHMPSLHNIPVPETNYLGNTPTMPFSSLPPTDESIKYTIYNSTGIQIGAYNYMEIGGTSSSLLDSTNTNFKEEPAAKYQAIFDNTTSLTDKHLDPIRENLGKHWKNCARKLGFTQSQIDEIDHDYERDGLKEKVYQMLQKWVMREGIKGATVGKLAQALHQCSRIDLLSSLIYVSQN
Method: as §1, §2, §3, §4, §5, §6

Sequence of human RIPK3 (Q9Y572 whole entry): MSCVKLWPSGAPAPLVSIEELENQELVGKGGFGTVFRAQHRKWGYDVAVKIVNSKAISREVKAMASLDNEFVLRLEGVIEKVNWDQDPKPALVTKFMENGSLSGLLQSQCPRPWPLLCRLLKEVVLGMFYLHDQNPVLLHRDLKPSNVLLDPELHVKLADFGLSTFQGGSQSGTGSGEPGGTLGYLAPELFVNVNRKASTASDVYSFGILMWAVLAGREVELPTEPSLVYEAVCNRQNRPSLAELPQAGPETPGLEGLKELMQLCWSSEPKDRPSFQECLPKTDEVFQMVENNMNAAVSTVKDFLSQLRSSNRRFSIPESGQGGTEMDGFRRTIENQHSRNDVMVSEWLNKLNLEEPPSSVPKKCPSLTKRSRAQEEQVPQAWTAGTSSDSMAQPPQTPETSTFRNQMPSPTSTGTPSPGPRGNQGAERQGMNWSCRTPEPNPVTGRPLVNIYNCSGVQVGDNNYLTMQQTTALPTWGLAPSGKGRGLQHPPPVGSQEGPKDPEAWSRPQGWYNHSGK

Compound | pKd [1] | pKd [2]
C[C@H](Oc1cc(-c2nn(C)c3c(-c4ccc5c(c4)CC(=O)N5C)cnc(N)c23)ccc1NS(=O)(=O)C(F)F)c1ccc(F)cc1 [Compound 165, (S)-N-(4-(4-amino-1-methyl-7-(1-methyl-2-oxoindolin-5-yl)-1H-pyrazolo[4,3-c]pyridin-3-yl)-2-(1-(4-fluorophenyl)ethoxy)phenyl)-1,1-difluoromethanesulfonamide] | < 5.00 | < 5.00
C[C@H](Oc1cc(-c2nn(C)c3c(-c4ccnc(N(C)C)c4)cnc(N)c23)ccc1NS(=O)(=O)C(F)F)c1ccc(F)cc1 [Compound 49, (S)-N-(4-(4-amino-7-(2-(dimethylamino)pyridin-4-yl)-1-methyl-1H-pyrazolo[4,3-c]pyridin-3-yl)-2-(1-(4-fluorophenyl)ethoxy)phenyl)-1,1-difluoromethanesulfonamide] | < 5.00 | < 5.00
CCS(=O)(=O)Nc1ccc(-c2ncn3ccnc(N)c23)cc1OCc1ccc(F)cc1 [Compound 63, N-(4-(8-Aminoimidazo[1,5-a]pyrazin-1-yl)-2-((4-fluorophenyl)methoxy)phenyl) ethane-1-sulfonamide] | < 5.00 | < 5.00
C[C@H](Oc1cc(-c2nn(C)c3c(-c4cnn(C5CCN(C)C6(CC6)C5)c4)cnc(N)c23)ccc1NS(=O)(=O)C(F)F)c1ccc(F)cc1 (stereo partly drawn) [Compound 145, N-(4-(4-amino-1-methyl-7-(1-(4-methyl-4-azaspiro[2.5]octan-7-yl)-1H-pyrazol-4-yl)-1H-pyrazolo[4,3-c]pyridin-3-yl)-2-((S)-1-(4-fluorophenyl)ethoxy)phenyl)-1,1-difluoromethanesulfonamide] | < 5.00 | < 5.00
COC[C@H](Oc1cc(-c2nn(C)c3c(-c4cnn(C5CCOCC5)c4)cnc(N)c23)ccc1NS(=O)(=O)C(F)F)c1ccc(F)cc1 [Compound 111, (R)—N-(4-(4-amino-1-methyl-7-(1-(tetrahydro-2H-pyran-4-yl)-1H-pyrazol-4-yl)-1H-pyrazolo[4,3-c]pyridin-3-yl)-2-(1-(4-fluorophenyl)-2-methoxyethoxy)phenyl)-1,1-difluoromethanesulfonamide] | < 5.00 | < 5.00
C[C@H](Oc1cc(-c2nn(C)c3c(-c4cnn(C5CCC(F)(F)C5)c4)cnc(N)c23)ccc1NS(=O)(=O)C(F)F)c1ccc(F)cc1 (stereo partly drawn) [Compound 120, N-(4-{4-amino-7-[1-(3,3-difluorocyclopentyl)-1H-pyrazol-4-yl]-1-methyl-1H-pyrazolo[4,3-c]pyridin-3-yl}-2-[(1S)-1-(4-fluorophenyl)ethoxy]phenyl)-1,1-difluoromethanesulfonamide] | < 5.00 | < 5.00
Cn1nc(-c2ccc(NS(=O)(=O)C(F)F)c(OC3(c4ccc(F)cc4)CC3)c2)c2c(N)ncc(-c3cnn(C4CCOCC4)c3)c21 [Compound 140, N-(4-(4-amino-1-methyl-7-(1-(tetrahydro-2H-pyran-4-yl)-1H-pyrazol-4-yl)-1H-pyrazolo[4,3-c]pyridin-3-yl)-2-(1-(4-fluorophenyl)cyclopropoxy)phenyl)-1,1-difluoromethane-sulfonamide] | < 5.00 | < 5.00
C[C@H](Oc1cc(-c2nn(C)c3c(Cc4ccccc4)cnc(N)c23)ccc1NS(=O)(=O)C(F)F)c1ccc(F)cc1 [Compound 34, (S)-N-(4-(4-amino-7-benzyl-1-methyl-1H-pyrazolo[4,3-c]pyridin-3-yl)-2-(1-(4-fluorophenyl)ethoxy)phenyl)-1,1-difluoromethanesulfonamide] | < 5.00 | < 5.00
C[C@H](Oc1cc(-c2nn(C)c3c(-c4cnn(C5CCOCC5)c4)cnc(N)c23)ccc1NS(C)(=O)=O)c1ccc(F)cc1 [Compound 119, (S)-N-(4-(4-amino-1-methyl-7-(1-(tetrahydro-2H-pyran-4-yl)-1H-pyrazol-4-yl)-1H-pyrazolo[4,3-c]pyridin-3-yl)-2-(1-(4-fluorophenyl)ethoxy)phe-nyl)methanesulfonamide] | < 5.00 | < 5.00
C[C@H](Oc1cc(-c2nn(C)c3c(-c4cnn(C5CCN(CC(F)(F)F)CC5)c4)cnc(N)c23)ccc1NS(=O)(=O)C(F)F)c1ccc(F)cc1 [Compound 61, (S)-N-(4-(4-amino-1-methyl-7-(1-(1-(2,2,2-trifluoroethyl)piperidin-4-yl)-1H-pyrazol-4-yl)-1H-pyrazolo[4,3-c]pyridin-3-yl)-2-(1-(4-fluorophenyl)ethoxy)phenyl)-1,1-difluoromethanesulfonamide] | < 5.00 | < 5.00

Results, then the molecule that gave them:

pKd [1] | pKd [2] | Compound
< 5.00 | < 5.00 | Nc1n[nH]c2ccnc(-c3ccc(NS(=O)(=O)C(F)F)c(OCc4ccc(F)cc4)c3)c12 [Compound 68, N-(4-(3-amino-1H-pyrazolo[4,3-c]pyridin-4-yl)-2-((4-fluorophenyl)methoxy)phenyl)-1,1-difluoromethanesulfonamide]
< 5.00 | < 5.00 | CC(C)n1nc(-c2ccc(NS(=O)(=O)C(F)F)c(O[C@@H](C)c3ccc(F)cc3)c2)c2c(N)ncc(-c3cnn(C4CCOCC4)c3)c21 [Compound 51, (S)-N-(4-(4-amino-1-isopropyl-7-(1-(tetrahydro-2H-pyran-4-yl)-1H-pyrazol-4-yl)-1H-pyrazolo[4,3-c]pyridin-3-yl)-2-(1-(4-fluorophenyl)ethoxy)phenyl)-1,1-difluoromethane-sulfonamide]
< 5.00 | < 5.00 | C[C@H](Oc1cc(-c2nn(C)c3c(-c4cnn(C5CCOCC5)c4)cnc(N)c23)ccc1NS(=O)(=O)Cc1ccccc1)c1ccc(F)cc1 [Compound 125, (S)-N-(4-(4-amino-1-methyl-7-(1-(tetra-hydro-2H-pyran-4-yl)-1H-pyrazol-4-yl)-1H-pyrazolo[4,3-c]pyridin-3-yl)-2-(1-(4-fluoro-phenyl)eth-oxy)phenyl)-1-phenylmethane-sulfonamide]
< 5.00 | < 5.00 | C[C@H](Oc1cc(-c2nn(C)c3c(-c4ccc(Cl)cc4)cnc(N)c23)ccc1NS(=O)(=O)C(F)F)c1ccc(F)cc1 [Compound 87, (S)-N-(4-(4-amino-7-(4-chlorophenyl)-1-methyl-1H-pyrazolo[4,3-c]pyridin-3-yl)-2-(1-(4-fluorophenyl)ethoxy)phenyl)-1,1-difluoromethanesulfonamide]
< 5.00 | < 5.00 | Cc1c(-c2cnc(N)c3c(-c4ccc(NS(=O)(=O)C(F)F)c(O[C@@H](C)c5ccc(F)cc5)c4)nn(C)c23)cnn1C1CCN(C)C(C)(C)C1 (stereo partly drawn) [Compound 157, N-(4-(4-amino-1-methyl-7-(5-methyl-1-(1,2,2-trimethylpiperidin-4-yl)-1H-pyrazol-4-yl)-1H-pyrazolo[4,3-c]pyridin-3-yl)-2-((S)-1-(4-fluorophenyl)ethoxy)phenyl)-1,1-difluoromethanesulfonamide]
< 5.00 | < 5.00 | C[C@H](Oc1cc(-c2nn(C)c3c(C#CC4CCN(CC(F)(F)F)CC4)cnc(N)c23)ccc1NS(=O)(=O)C(F)F)c1ccc(F)cc1 [Compound 128, (S)-N-(4-(4-amino-1-methyl-7-((1-(2,2,2-trifluoroethyl)piperidin-4-yl)ethynyl)-1H-pyrazolo[4,3-c]pyridin-3-yl)-2-(1-(4-fluorophenyl)ethoxy)phenyl)-1,1-difluoromethane-sulfonamide]
< 5.00 | < 5.00 | C[C@H](Oc1cc(-c2nn(C)c3c(-c4cnn(C5CCOCC5)c4)cnc(N)c23)ccc1NS(=O)(=O)C(F)F)c1ccccc1F [Compound 118, (S)-N-(4-(4-amino-1-methyl-7-(1-(tetrahydro-2H-pyran-4-yl)-1H-pyrazol-4-yl)-1H-pyrazolo[4,3-c]pyridin-3-yl)-2-(1-(2-fluoro-phenyl)ethoxy)phenyl)-1,1-difluoromethane-sulfonamide]
< 5.00 | < 5.00 | C[C@H](Oc1cc(-c2nn(C)c3c(-c4ccc(C(F)(F)F)nc4)cnc(N)c23)ccc1NS(=O)(=O)C(F)F)c1ccc(F)cc1 [Compound 117, (S)-N-(4-(4-amino-1-methyl-7-(6-(trifluoromethyl)pyridin-3-yl)-1H-pyrazolo[4,3-c]pyridin-3-yl)-2-(1-(4-fluorophenyl)ethoxy)phenyl)-1,1-difluoromethanesulfonamide]
< 5.00 | < 5.00 | C[C@H](Oc1cc(-c2nn(C)c3c(-c4cnn(C5CCOCC5)c4)cnc(N)c23)ccc1NS(=O)(=O)CC(F)(F)F)c1ccc(F)cc1 [Compound 44, (S)—N-(4-(4-amino-1-methyl-7-(1-(tetrahydro-2H-pyran-4-yl)-1H-pyrazol-4-yl)-1H-pyrazolo[4,3-c]pyridin-3-yl)-2-(1-(4-fluorophenyl)ethoxy)phenyl)-2,2,2-trifluoroethane-1-sulfonamide]
< 5.00 | < 5.00 | CC(C)n1nc(-c2ccc(NS(=O)(=O)C(F)F)c(O[C@@H](C)c3ccc(F)cc3)c2)c2c(N)ncc(-c3cnn(C)c3)c21 [Compound 52, (S)-N-(4-(4-amino-1-isopropyl-7-(1-methyl-1H-pyrazol-4-yl)-1H-pyrazolo[4,3-c]pyridin-3-yl)-2-(1-(4-fluorophenyl)ethoxy)phenyl)-1,1-difluoromethane-sulfonamide]
